Experimental findings from patent US8349852B2, “Quinazolinone derivatives useful as vanilloid antagonists” (Novartis AG, priority 2009, dated 2013) are described below.

The experiment has as its target human TRPV1 (Homo sapiens, UniProt Q8NER1). As to the kind of experiment: inhibition of low pH-, capsaicin-, anandamide- and NADA-stimulation of human TRPV1. In kind it is cell-based. An excerpt: The compounds of formulae (I) and (Ia) and I(B) in crystal form B, and their pharmaceutically acceptable salts and, where possible, pharmaceutically acceptable acid addition salts, have beneficial pharmacological activity and, therefore, are useful as pharmaceuticals.

By IC50 is commonly meant the concentration at which inhibition is half-maximal.

Sequence of human TRPV1 (Q8NER1 whole entry): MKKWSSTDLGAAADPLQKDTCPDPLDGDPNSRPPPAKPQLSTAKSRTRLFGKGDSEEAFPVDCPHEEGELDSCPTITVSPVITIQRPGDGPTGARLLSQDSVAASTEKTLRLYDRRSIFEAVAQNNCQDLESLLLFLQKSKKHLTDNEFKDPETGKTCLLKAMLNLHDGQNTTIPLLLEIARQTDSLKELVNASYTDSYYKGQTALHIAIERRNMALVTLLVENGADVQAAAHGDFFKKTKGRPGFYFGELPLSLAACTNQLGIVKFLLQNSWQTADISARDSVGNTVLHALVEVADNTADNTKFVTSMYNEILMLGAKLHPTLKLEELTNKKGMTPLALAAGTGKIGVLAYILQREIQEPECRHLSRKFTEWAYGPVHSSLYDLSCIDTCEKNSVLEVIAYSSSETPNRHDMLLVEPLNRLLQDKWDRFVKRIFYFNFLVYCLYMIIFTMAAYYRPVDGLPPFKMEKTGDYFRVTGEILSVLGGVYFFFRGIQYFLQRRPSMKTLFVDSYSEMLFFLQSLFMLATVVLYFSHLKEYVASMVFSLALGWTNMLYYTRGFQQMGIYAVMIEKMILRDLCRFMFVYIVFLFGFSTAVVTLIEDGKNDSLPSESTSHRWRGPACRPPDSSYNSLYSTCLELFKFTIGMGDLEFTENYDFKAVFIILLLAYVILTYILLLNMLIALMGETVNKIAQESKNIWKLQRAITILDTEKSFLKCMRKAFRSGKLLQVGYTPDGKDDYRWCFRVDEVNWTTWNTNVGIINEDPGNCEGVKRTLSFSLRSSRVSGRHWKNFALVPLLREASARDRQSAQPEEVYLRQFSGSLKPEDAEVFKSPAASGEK

For `CC(C)c1nc2cc(O)ccc2c(=O)n1-c1ccc(C#N)cc1` [Example 1, 4-(7-hydroxy-2-isopropyl-4-oxo-4H-quinazolin-3-yl)-benzonitrile crystal form B], the “nature of antagonist activity at human TRPV1” value was “non-competitive and reversible”. This molecule also had an IC50 (IC50, inhibition of NADA-stimulation of human TRPV1, stimulus: NADA) of 27 nM. Besides, inhibition (IC50, inhibition of anandamide-stimulation of human TRPV1, stimulus: anandamide) was half-maximal at 10 nM (IC50). Under “IC50, inhibition of capsaicin-stimulation of human TRPV1, stimulus: capsaicin”, this molecule yielded an IC50 of 12 nM. This molecule came in with an IC50 (IC50, inhibition of low pH-stimulation of human TRPV1, stimulus: low pH) of 5 nM.
